The source made the active and inactive calls. The rule behind the calls is not given here. Residues, ends and D or L forms follow the SMILES beside them. *: point of attachment. X1 = CC[C@@]1(OC(=O)CCCCCN2CC(=O)C(*)C2=O)C(=O)OCc2c1cc1n(c2=O)Cc2cc3ccccc3nc2-1; X2 = CC[C@@]1(OC(=O)CCS*)C(=O)OCc2c1cc1n(c2=O)Cc2cc3ccccc3nc2-1

One series concerns SK-BR-3. Nature of the series: Cytotoxicity against HER-positive human SK-BR-3 cells assessed as inhibition of cell growth incubated for 48 hrs by MTT assay. It counts as functional, cell-based. To be noted: SK-BR-3, 48 h.
Another series concerns NCI-N87. The experiment in a line: Cytotoxicity against HER-positive human NCI-N87 cells assessed as inhibition of cell growth incubated for 48 hrs by MTT assay. It counts as functional, cell-based. To be noted: NCI-N87, 48 h.
A further series has as its system SK-OV-3. Nature of the series: Cytotoxicity against HER-positive human SK-OV-3 cells assessed as inhibition of cell growth incubated for 48 hrs by MTT assay. As to conditions: SK-OV-3, 48 h. It counts as functional, cell-based. Background: Tetrazolium dyes change colour on reduction, which living cells bring about.
Another series concerns MDA-MB-231. Nature of the series: Cytotoxicity against HER-negative human MDA-MB-231 cells assessed as inhibition of cell growth incubated for 48 hrs by MTT assay. As to conditions: MDA-MB-231, 48 h. It counts as functional, cell-based.
Series [1] is described as follows: Cytotoxicity against human MCF-10A cells assessed as inhibition of cell growth incubated for 48 hrs by MTT assay. It counts as toxicity, cell-based.
Series [2] has as its target T1, Receptor tyrosine-protein kinase erbB-2 (Homo sapiens, UniProt P04626). Nature of the series: Binding affinity to HER2 in HER-positive human SK-BR-3 cells assessed as increase in fluorescence intensity at 25 uM by Hoechst 33342 staining based confocal microscopic analysis. It counts as cell-based.
Series [3] concerns the target T1, Receptor tyrosine-protein kinase erbB-2. The experiment in a line: Binding affinity to recombinant HER2 (unknown origin) assessed as dissociation constant by SPR analysis. (SPR reads the build-up and loss of mass on a sensor chip optically.)

T1 sequence (P04626 whole entry): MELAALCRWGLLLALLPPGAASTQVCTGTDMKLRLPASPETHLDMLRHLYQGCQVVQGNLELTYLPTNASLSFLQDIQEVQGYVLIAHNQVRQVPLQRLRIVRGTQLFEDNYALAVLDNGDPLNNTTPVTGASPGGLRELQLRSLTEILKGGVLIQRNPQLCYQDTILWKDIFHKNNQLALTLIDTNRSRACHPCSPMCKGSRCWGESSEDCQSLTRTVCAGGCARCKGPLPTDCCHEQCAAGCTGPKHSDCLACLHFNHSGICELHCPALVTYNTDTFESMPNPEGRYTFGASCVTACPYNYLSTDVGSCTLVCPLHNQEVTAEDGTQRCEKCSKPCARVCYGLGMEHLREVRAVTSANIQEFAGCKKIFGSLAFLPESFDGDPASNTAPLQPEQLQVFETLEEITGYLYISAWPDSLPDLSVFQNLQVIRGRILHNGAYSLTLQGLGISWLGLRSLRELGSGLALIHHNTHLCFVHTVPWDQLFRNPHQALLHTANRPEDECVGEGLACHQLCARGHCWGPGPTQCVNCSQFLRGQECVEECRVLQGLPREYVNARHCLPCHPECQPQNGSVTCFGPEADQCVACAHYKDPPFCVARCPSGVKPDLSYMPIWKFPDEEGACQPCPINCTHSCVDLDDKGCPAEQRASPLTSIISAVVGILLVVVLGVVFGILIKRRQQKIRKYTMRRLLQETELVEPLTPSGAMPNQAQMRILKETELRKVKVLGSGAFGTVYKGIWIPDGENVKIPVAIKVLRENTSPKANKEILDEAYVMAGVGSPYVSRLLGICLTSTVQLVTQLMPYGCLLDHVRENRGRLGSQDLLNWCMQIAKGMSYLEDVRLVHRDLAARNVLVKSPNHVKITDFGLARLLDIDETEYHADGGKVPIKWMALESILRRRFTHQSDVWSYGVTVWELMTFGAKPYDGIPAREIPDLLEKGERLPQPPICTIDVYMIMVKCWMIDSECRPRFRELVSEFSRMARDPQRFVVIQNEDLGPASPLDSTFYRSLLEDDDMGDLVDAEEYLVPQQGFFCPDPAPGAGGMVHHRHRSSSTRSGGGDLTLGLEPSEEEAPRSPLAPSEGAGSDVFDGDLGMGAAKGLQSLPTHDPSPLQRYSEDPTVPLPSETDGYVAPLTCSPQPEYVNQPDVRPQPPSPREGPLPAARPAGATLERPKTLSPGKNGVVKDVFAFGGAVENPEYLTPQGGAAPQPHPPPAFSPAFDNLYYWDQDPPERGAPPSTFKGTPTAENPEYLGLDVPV

For orientation: IC50 means the concentration that gives 50% inhibition. For `CC[C@H](C)[C@H](NC(=O)[C@@H](N)CCCNC(=N)N)C(=O)N[C@@H](CCCCN)C(=O)N1CCC[C@H]1C(=O)N[C@@H](CCCNC(=N)N)C(=O)N[C@@H](CCCCN)C(=O)NCC(=O)N[C@@H](Cc1ccc(O)cc1)C(=O)N[C@H](C(=O)N[C@@H](CCCNC(=N)N)C(=O)NCC(=O)N[C@@H](CSSCCC(=O)O[C@]1(CC)C(=O)OCc2c1cc1n(c2=O)Cc2cc3ccccc3nc2-1)C(=O)NCC(=O)N[C@@H](CSSCCC(=O)O[C@]1(CC)C(=O)OCc2c1cc1n(c2=O)Cc2cc3ccccc3nc2-1)C(=O)NC(=O)C[C@H](NC(=O)CN)C(=O)N1CCC[C@H]1C(=O)N[C@@H](CC(N)=O)C(=O)N[C@@H](Cc1c[nH]c2ccccc12)C(=O)NCC(=O)N[C@@H](CCCNC(=N)N)C(=O)N[C@@H](CO)C(=O)N[C@@H](Cc1c[nH]c2ccccc12)C(=O)N[C@@H](Cc1ccc(O)cc1)C(=O)N[C@@H](CC(N)=O)C(=O)N[C@@H](CCC(N)=O)C(=O)N[C@@H](CCCNC(=N)N)C(=O)N[C@@H](Cc1ccccc1)C(=O)N[C@@H](CCCCN)C(N)=O)[C@@H](C)O`, the IC50 in the series with SK-BR-3 was determined as 1.49 µM; in the series with NCI-N87 it was 7.37 µM; in the series with SK-OV-3, 4.12 µM; with MDA-MB-231, 11.5 µM. Further, in series [1], the IC50 at 48 h came to 18.2 µM.

Regarding `CC[C@H](C)[C@H](NC(=O)[C@@H](N)CCCNC(=N)N)C(=O)N[C@@H](CCCCN)C(=O)N1CCC[C@H]1C(=O)N[C@@H](CCCNC(=N)N)C(=O)N[C@@H](CCCCN)C(=O)NCC(=O)N[C@@H](Cc1ccc(O)cc1)C(=O)N[C@H](C(=O)N[C@@H](CCCNC(=N)N)C(=O)NCC(=O)N[C@@H](CSC1C(=O)CN(CCCCCC(=O)O[C@]2(CC)C(=O)OCc3c2cc2n(c3=O)Cc3cc4ccccc4nc3-2)C1=O)C(=O)NCC(=O)N[C@@H](CSC1C(=O)CN(CCCCCC(=O)O[C@]2(CC)C(=O)OCc3c2cc2n(c3=O)Cc3cc4ccccc4nc3-2)C1=O)C(=O)NC(=O)C[C@H](NC(=O)CN)C(=O)N1CCC[C@H]1C(=O)N[C@@H](CC(N)=O)C(=O)N[C@@H](Cc1c[nH]c2ccccc12)C(=O)NCC(=O)N[C@@H](CCCNC(=N)N)C(=O)N[C@@H](CO)C(=O)N[C@@H](Cc1c[nH]c2ccccc12)C(=O)N[C@@H](Cc1ccc(O)cc1)C(=O)N[C@@H](CC(N)=O)C(=O)N[C@@H](CCC(N)=O)C(=O)N[C@@H](CCCNC(=N)N)C(=O)N[C@@H](Cc1ccccc1)C(=O)N[C@@H](CCCCN)C(N)=O)[C@@H](C)O` (some centres not stated), the IC50 in the series with SK-BR-3 came to 6.72 µM; in the series on NCI-N87, 10.9 µM; with SK-OV-3, 20.4 µM; in the series on MDA-MB-231 it was 28.2 µM. The IC50 at 48 h in series [1] turned out to be 25.2 µM.

Regarding `CC[C@H](C)[C@H](NC(=O)[C@H](CCCNC(=N)N)NC(=O)CNC(=O)[C@H](CS)NC(=O)CNC(=O)[C@H](CCCCN)NC(=O)[C@H](Cc1ccccc1)NC(=O)[C@H](CCCNC(=N)N)NC(=O)[C@H](CCC(N)=O)NC(=O)[C@H](CC(N)=O)NC(=O)[C@H](Cc1ccc(O)cc1)NC(=O)[C@H](Cc1c[nH]c2ccccc12)NC(=O)[C@H](CO)NC(=O)[C@H](CCCNC(=N)N)NC(=O)CNC(=O)[C@H](Cc1c[nH]c2ccccc12)NC(=O)[C@H](CC(N)=O)NC(=O)[C@@H]1CCCN1C(=O)[C@H](N)CC(=O)NC(=S)Nc1ccc2c(c1)C(=O)OC21c2ccc(O)cc2Oc2cc(O)ccc21)C(=O)N[C@@H](CCCCN)C(=O)N1CCC[C@@H]1C(=O)N[C@H](CCCNC(=N)N)C(=O)N[C@H](CCCCN)C(=O)NCC(=O)N[C@H](Cc1ccc(O)cc1)C(=O)N[C@@H](C(=O)N[C@H](CCCNC(=N)N)C(N)=O)[C@H](C)O`, in series [2], the result was Active.

What is called Kd is the constant that tells how readily two partners part at equilibrium. As for `N=C(N)NCCC[C@H](NC(=O)CNC(=O)[C@H](Cc1c[nH]c2ccccc12)NC(=O)[C@H](CC(N)=O)NC(=O)[C@@H]1CCCN1C(=O)[C@@H](N)CC(N)=O)C(=O)N[C@@H](CO)C(=O)N[C@@H](Cc1c[nH]c2ccccc12)C(=O)N[C@@H](Cc1ccc(O)cc1)C(=O)N[C@@H](CC(N)=O)C(=O)N[C@@H](CCC(N)=O)C(=O)N[C@@H](CCCNC(=N)N)C(=O)N[C@@H](Cc1ccccc1)C(=O)N[C@@H](CCCCN)C(=O)O` (H-NPNWGRSWYNQRFK-OH), the Kd in series [3] was 5.7 µM.

Regarding `N=C(N)NCCC[C@H](NC(=O)[C@H](CCC(N)=O)NC(=O)[C@H](CC(N)=O)NC(=O)[C@H](Cc1ccc(O)cc1)NC(=O)[C@H](CCCNC(=N)N)NC(=O)[C@H](CO)NC(=O)[C@H](Cc1c[nH]c2ccccc12)NC(=O)CNC(=O)[C@H](Cc1c[nH]c2ccccc12)NC(=O)[C@H](CC(N)=O)NC(=O)[C@@H]1CCCN1C(=O)[C@@H](N)CC(N)=O)C(=O)N[C@@H](Cc1ccccc1)C(=O)N[C@@H](CCCCN)C(=O)O` (H-NPNWGWSRYNQRFK-OH), the Kd in series [3] amounted to 9.89 µM.

As to `N=C(N)NCCC[C@H](NC(=O)[C@H](CCC(N)=O)NC(=O)[C@H](CC(N)=O)NC(=O)[C@H](Cc1ccc(O)cc1)NC(=O)[C@H](Cc1c[nH]c2ccccc12)NC(=O)[C@H](CO)NC(=O)[C@H](Cc1c[nH]c2ccccc12)NC(=O)CNC(=O)[C@H](Cc1c[nH]c2ccccc12)NC(=O)[C@H](CC(N)=O)NC(=O)[C@@H]1CCCN1C(=O)[C@@H](N)CC(N)=O)C(=O)N[C@@H](Cc1ccccc1)C(=O)N[C@@H](CCCCN)C(=O)O` (H-NPNWGWSWYNQRFK-OH), in series [3], the Kd amounted to 8.9 µM.

Take `N=C(N)NCCC[C@H](NC(=O)[C@H](CCC(N)=O)NC(=O)[C@H](CC(N)=O)NC(=O)[C@H](Cc1ccc(O)cc1)NC(=O)[C@H](Cc1c[nH]c2ccccc12)NC(=O)[C@H](CO)NC(=O)[C@H](Cc1ccc(O)cc1)NC(=O)CNC(=O)[C@H](Cc1c[nH]c2ccccc12)NC(=O)[C@H](CC(N)=O)NC(=O)[C@@H]1CCCN1C(=O)[C@@H](N)CC(N)=O)C(=O)N[C@@H](Cc1ccccc1)C(=O)N[C@H](C=O)CCCCN` (H-NPNWGYSWYNQRFK-aldehyde): the Kd in series [3] was found to be 14.3 µM.

Take `N=C(N)NCCC[C@H](NC(=O)CNC(=O)[C@H](Cc1c[nH]c2ccccc12)NC(=O)[C@@H]1CCCN1C(=O)[C@@H]1CCCN1C(=O)[C@@H](N)CC(N)=O)C(=O)N[C@@H](CO)C(=O)N[C@@H](CCCNC(=N)N)C(=O)N[C@@H](Cc1ccc(O)cc1)C(=O)N[C@@H](CC(N)=O)C(=O)N[C@@H](CCC(N)=O)C(=O)N[C@@H](CCCNC(=N)N)C(=O)N[C@@H](Cc1ccccc1)C(=O)N[C@@H](CCCCN)C(=O)O` (H-NPPWGRSRYNQRFK-OH): in series [3], the Kd was 12.3 µM.

Turning to `CC[C@H](C)[C@H](NC(=O)[C@@H](N)CCCNC(=N)N)C(=O)N[C@@H](CCCCN)C(=O)N1CCC[C@H]1C(=O)N[C@@H](CCCNC(=N)N)C(=O)N[C@@H](CCCCN)C(=O)NCC(=O)N[C@@H](Cc1ccc(O)cc1)C(=O)N[C@H](C(=O)N[C@@H](CCCNC(=N)N)C(=O)O)[C@@H](C)O` (H-RIKPRKGYTR-OH), in series [3], the Kd was determined as 7.6 µM.

As for `CC[C@H](C)[C@H](NC(=O)[C@@H](N)CCCNC(=N)N)C(=O)N[C@@H](CCCCN)C(=O)N1CCC[C@H]1C(=O)N[C@@H](CCCNC(=N)N)C(=O)N[C@@H](CCCCN)C(=O)NCC(=O)N[C@@H](Cc1ccc(O)cc1)C(=O)N[C@H](C(=O)N[C@@H](CCCNC(=N)N)C(=O)NCC(=O)N[C@@H](CSC1C(=O)CN(CCCCCC(=O)O[C@]2(CC)C(=O)OCc3c2cc2n(c3=O)Cc3cc4ccccc4nc3-2)C1=O)C(=O)NCC(=O)N[C@@H](CC(N)=O)C(=O)N1CCC[C@H]1C(=O)N[C@@H](CC(N)=O)C(=O)N[C@@H](Cc1c[nH]c2ccccc12)C(=O)NCC(=O)N[C@@H](CCCNC(=N)N)C(=O)N[C@@H](CO)C(=O)N[C@@H](Cc1c[nH]c2ccccc12)C(=O)N[C@@H](Cc1ccc(O)cc1)C(=O)N[C@@H](CC(N)=O)C(=O)N[C@@H](CCC(N)=O)C(=O)N[C@@H](CCCNC(=N)N)C(=O)N[C@@H](Cc1ccccc1)C(=O)N[C@@H](CCCCN)C(N)=O)[C@@H](C)O` (some centres not stated) (H-RIKPRKGYTRGC(X1)GNPNWGRSWYNQRFK-NH2), the IC50 in the series on SK-BR-3 is 25.4 µM; in the series on NCI-N87, 15.3 µM; with SK-OV-3 it was 24.4 µM; with MDA-MB-231, 23.1 µM. Moreover, in series [1], the IC50 at 48 h amounted to 35.2 µM.

For `CC[C@H](C)[C@H](NC(=O)[C@@H](N)CCCNC(=N)N)C(=O)N[C@@H](CCCCN)C(=O)N1CCC[C@H]1C(=O)N[C@@H](CCCNC(=N)N)C(=O)N[C@@H](CCCCN)C(=O)NCC(=O)N[C@@H](Cc1ccc(O)cc1)C(=O)N[C@H](C(=O)N[C@@H](CCCNC(=N)N)C(=O)NCC(=O)N[C@@H](CSSCCC(=O)O[C@]1(CC)C(=O)OCc2c1cc1n(c2=O)Cc2cc3ccccc3nc2-1)C(=O)NCC(=O)N[C@@H](CC(N)=O)C(=O)N1CCC[C@H]1C(=O)N[C@@H](CC(N)=O)C(=O)N[C@@H](Cc1c[nH]c2ccccc12)C(=O)NCC(=O)N[C@@H](CCCNC(=N)N)C(=O)N[C@@H](CO)C(=O)N[C@@H](Cc1c[nH]c2ccccc12)C(=O)N[C@@H](Cc1ccc(O)cc1)C(=O)N[C@@H](CC(N)=O)C(=O)N[C@@H](CCC(N)=O)C(=O)N[C@@H](CCCNC(=N)N)C(=O)N[C@@H](Cc1ccccc1)C(=O)N[C@@H](CCCCN)C(N)=O)[C@@H](C)O` (H-RIKPRKGYTRGC(X2)GNPNWGRSWYNQRFK-NH2), the IC50 is 6.42 µM in the series on SK-BR-3, 5.76 µM in the series on NCI-N87, 6.25 µM in the series with SK-OV-3 and 10.9 µM with MDA-MB-231. Also, the IC50 at 48 h in series [1] stood at 20.4 µM.

The record behind these values is ChEMBL document CHEMBL5096235, “In Silico Exploration and Biological Evaluation of Bispecific Peptides Derived from Anti-HER2 Antibodies and Peptide-Camptothecin Conjugates for HER2-Positive Breast Cancer” (J Med Chem, 2022).
